The source made the active and inactive calls. Cut-off read from the data, not from the text of the source, for most assays here: actives have a measured EC50 and inactives only a lower limit.
How the values were obtained:
[1] = Luminescence Cell-Based Dose Confirmation HTS to Identify Activators of 5'UTR Stem-Loop Driven Alpha-Synuclein mRNA Translation in H4 Neuroglioblastoma Cells. [Related pubchem assays: 1829 (Project Summary), 1814 (Primary HTS)]; format: functional
[2] = Luminescence Cell-Based Dose Response HTS to Identify Activators of Luciferase Translation or Activity in H4 […] Cells. [Related pubchem assays: 1829 (Project Summary), 1814 (Primary HTS)]; format: functional
Paired box protein Pax-8 = Paired box protein Pax-8 (Homo sapiens, UniProt Q06710); assay: PAX8 transcriptional activity inhibition in RMG-I – RMG-I cells, luciferase, cherry-pick, dose response (AID 687027); format: functional, cell-based;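 note: luciferase reporter driven by Pax8 target thyroperoxidase promoter measured by SteadyGlo luminescence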
[3] = molecular target: T1, Corticotropin-releasing factor receptor 2/Corticotropin-releasing factor-binding protein (Homo sapiens, UniProt P24387+Q13324); assay: Dose Response confirmation of uHTS hits for small molecule antagonists of the CRF-binding protein and CRF-R2 receptor complex.; format: functional; conditions: read-out: IC50_Mean
T1 sequence (Q13324 whole entry): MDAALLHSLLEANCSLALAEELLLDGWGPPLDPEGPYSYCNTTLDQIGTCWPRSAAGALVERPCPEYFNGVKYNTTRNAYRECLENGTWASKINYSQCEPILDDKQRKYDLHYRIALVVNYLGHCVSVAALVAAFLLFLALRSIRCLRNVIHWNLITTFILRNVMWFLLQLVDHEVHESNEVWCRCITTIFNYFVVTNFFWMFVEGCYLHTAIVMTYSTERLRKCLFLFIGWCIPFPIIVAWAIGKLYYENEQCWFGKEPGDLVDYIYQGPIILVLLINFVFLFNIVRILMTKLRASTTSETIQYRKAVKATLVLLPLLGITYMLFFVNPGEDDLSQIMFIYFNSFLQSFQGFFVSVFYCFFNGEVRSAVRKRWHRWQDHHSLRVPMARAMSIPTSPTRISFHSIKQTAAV
T1 sequence (P24387 whole entry): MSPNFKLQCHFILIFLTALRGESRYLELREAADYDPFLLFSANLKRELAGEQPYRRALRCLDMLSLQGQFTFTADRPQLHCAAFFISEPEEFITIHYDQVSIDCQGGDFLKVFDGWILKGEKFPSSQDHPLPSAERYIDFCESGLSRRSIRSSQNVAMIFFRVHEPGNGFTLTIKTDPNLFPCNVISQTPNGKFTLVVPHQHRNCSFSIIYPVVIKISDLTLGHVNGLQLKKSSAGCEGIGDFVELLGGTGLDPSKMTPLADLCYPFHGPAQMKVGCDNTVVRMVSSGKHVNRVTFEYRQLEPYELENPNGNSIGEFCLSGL

[4] = molecular target: T1, Corticotropin-releasing factor receptor 2/Corticotropin-releasing factor-binding protein; assay: activators of CRF receptor 2 with binding protein – uHTS hits, confirmation (AID 602473); format: functional; conditions: read-out: EC50_Mean
Streptokinase A = molecular target: T2, Streptokinase A (Streptococcus pyogenes serotype M1, UniProt P10520); assay: viability-normalized secreted streptokinase activity reduction – plasminogen activation absorbance, OD405, dose response (AID 1914); format: functional, Streptococcus pyogenes M1 GAS;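 note: secreted streptokinase activity via plasminogen activation per viability signal from cell pellet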
T2 sequence (P10520 whole entry): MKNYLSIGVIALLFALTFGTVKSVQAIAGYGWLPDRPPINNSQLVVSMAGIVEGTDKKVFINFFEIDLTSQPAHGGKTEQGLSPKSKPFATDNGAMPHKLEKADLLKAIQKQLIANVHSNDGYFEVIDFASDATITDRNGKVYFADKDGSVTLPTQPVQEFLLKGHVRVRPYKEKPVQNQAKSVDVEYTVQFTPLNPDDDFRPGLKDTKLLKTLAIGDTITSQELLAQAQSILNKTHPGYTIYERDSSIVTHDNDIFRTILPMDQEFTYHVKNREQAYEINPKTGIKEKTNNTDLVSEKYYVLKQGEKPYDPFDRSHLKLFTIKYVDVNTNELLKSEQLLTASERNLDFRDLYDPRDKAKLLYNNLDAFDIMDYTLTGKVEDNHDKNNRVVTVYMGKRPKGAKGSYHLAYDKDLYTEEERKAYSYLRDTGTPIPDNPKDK

[5] = tested on: Streptococcus sp. 'group A'; assay: Streptococcus pyogenes SK(-)GAS viability under kanamycin – luminescence, BacTiterGlo, confirmation, counter-screen for streptokinase expression inhibitor project, dose response (AID 1900); format: functional, organism-based
Streptococcus = assay: GAS UMAA2166 growth inhibition – luminescence, BacTiterGlo, counter-screen for streptokinase expression inhibitor project, dose response (AID 1915); format: functional, organism-based;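 note: potency for reduction of bacterial viability or growth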
[6] = molecular target: T3, Rac GTPase-activating protein 1 (Homo sapiens, UniProt Q9H0H5); assay: blockers of MgcRacGAP-driven Rac1 GTP hydrolysis – biochemical, ADP Hunter fluorescence, primary and confirmatory, confirmation (AID 624330); format: functional
T3 sequence (Q9H0H5 whole entry): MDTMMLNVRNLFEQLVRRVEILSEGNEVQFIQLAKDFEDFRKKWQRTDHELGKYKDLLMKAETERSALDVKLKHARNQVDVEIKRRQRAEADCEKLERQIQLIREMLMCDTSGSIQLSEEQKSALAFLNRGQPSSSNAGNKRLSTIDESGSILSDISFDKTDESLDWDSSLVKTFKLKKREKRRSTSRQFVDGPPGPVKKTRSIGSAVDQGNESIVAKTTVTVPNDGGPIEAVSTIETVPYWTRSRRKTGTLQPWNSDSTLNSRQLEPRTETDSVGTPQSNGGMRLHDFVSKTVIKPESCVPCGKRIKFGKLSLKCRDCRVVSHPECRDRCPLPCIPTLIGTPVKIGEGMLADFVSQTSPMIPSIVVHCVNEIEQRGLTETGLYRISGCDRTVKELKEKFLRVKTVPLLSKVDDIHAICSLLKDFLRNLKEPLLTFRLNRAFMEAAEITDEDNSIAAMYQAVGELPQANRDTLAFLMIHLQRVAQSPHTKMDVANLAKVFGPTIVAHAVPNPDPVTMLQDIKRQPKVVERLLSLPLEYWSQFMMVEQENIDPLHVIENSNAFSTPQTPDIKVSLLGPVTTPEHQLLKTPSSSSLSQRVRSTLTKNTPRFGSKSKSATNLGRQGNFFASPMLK

Cytochrome P450 1A2 = molecular target: T4, Cytochrome P450 1A2 (Homo sapiens, UniProt P05177);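 note: PubChem cytochrome P450 panel assay, CYP1A2 panel member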
T4 sequence (P05177 whole entry): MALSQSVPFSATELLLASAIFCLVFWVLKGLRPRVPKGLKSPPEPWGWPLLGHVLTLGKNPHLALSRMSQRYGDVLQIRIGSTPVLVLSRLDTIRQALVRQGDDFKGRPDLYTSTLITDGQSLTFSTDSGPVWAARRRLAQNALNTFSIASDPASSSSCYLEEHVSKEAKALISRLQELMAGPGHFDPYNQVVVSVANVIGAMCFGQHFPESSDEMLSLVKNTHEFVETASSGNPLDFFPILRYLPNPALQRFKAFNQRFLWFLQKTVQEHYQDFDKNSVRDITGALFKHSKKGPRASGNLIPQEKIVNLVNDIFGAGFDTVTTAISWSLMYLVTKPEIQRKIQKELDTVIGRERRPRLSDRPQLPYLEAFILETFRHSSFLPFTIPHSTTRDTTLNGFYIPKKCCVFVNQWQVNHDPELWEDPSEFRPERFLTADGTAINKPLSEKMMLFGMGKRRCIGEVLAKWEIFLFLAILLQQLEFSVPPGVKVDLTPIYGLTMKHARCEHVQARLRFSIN

Cytochrome P450 2D6 = Cytochrome P450 2D6 (Homo sapiens, UniProt P10635);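 note: CYP2D6 member of a cytochrome P450 panel assay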
Cytochrome P450 3A4 = Cytochrome P450 3A4 (Homo sapiens, UniProt P08684);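 note: CYP3A4 tested as one member of a cytochrome P450 panel screen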
[7] = NIH-3T3 fibroblast cytotoxicity, dose response, cytotoxicity control, cell-based, fluorescence, Alamar Blue, secondary assay (AID 2327); format: functional;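 note: NIH-3T3 mouse fibroblasts cultured with fluconazole at 8 µg/mL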
[8] = fluconazole-exposed Candida albicans growth modulators – fluorescence, retest, confirmation (AID 2467); format: functional, cell-based
INS1 = assay: INS-1E survival protection against cytokine death – cell-based, luminescence, retest, dose response (AID 449756); format: functional; conditions: Rattus norvegicus;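 note: cell death triggered by IL-1 beta plus TNF-alpha plus IFN-gamma mixture; protective hits raise ATP signal compared with cytokine alone wells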

Cytochrome P450 3A4, sequence (P08684 whole entry): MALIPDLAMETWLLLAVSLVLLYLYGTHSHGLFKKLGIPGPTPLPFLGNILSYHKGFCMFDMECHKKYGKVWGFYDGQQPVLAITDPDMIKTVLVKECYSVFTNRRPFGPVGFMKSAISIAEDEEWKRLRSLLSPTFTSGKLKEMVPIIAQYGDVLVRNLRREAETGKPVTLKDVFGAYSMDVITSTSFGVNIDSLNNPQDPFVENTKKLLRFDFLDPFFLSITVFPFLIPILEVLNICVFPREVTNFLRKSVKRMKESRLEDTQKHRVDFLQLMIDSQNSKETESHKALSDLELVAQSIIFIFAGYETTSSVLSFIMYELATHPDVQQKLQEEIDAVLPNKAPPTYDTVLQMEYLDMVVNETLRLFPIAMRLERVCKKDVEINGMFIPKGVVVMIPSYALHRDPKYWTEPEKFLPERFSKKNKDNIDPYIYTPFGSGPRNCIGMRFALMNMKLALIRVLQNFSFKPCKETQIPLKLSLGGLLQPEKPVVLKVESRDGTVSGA
Paired box protein Pax-8, sequence (Q06710 whole entry): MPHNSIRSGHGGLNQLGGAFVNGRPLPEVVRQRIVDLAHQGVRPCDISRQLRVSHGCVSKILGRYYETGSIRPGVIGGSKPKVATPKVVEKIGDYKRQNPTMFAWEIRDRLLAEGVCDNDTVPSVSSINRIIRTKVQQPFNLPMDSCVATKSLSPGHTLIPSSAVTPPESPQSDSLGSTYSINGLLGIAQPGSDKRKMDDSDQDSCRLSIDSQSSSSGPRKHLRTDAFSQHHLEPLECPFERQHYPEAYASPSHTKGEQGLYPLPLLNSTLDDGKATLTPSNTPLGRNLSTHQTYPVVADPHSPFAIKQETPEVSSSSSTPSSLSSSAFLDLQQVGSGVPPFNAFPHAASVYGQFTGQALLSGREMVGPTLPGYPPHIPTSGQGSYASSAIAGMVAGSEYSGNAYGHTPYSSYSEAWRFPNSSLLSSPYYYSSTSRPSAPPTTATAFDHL
Cytochrome P450 2D6, sequence (P10635 whole entry): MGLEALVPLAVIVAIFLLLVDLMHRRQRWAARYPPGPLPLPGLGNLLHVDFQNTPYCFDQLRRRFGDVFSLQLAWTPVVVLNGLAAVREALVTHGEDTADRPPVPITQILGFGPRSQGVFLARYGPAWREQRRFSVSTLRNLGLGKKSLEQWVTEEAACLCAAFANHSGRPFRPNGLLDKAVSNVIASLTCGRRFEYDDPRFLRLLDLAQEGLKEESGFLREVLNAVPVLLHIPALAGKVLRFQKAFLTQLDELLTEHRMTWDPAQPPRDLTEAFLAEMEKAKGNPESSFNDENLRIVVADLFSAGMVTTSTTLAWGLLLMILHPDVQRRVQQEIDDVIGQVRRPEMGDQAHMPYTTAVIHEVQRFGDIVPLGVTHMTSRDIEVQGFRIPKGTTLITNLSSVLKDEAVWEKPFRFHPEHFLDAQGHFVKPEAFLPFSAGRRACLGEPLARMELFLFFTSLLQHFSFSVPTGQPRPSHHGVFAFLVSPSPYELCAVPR

C=CCNc1ncnc2c1[nH]c1ccc(Cl)cc12
EC50 [1]: 89.5 µM (active) | EC50 [2]: 43 µM (active)

Oc1ccc(C[C@H]2CNC(=S)N2CC2CCCN2C[C@H](Cc2ccc(O)cc2)N2C[C@H](Cc3ccc(O)cc3)N(CC3CCCCCC3)C2=S)cc1 (stereo not given in full)
AC50 (Paired box protein Pax-8): 5.35 µM (active)

CC12CCC(C/C1=N\OC(=O)c1c(F)cccc1F)C2(C)C (stereo not given)
IC50 [3]: > 47.1 µM (inactive) | EC50 [4]: > 53 µM (inactive)

C/C(=N/NC(=O)CNC(=O)c1cccnc1)c1cccc([N+](=O)[O-])c1
EC50 (Streptokinase A): > 150 µM (not active) | EC50 [5]: > 150 µM (not active) | EC50 (Streptococcus): > 150 µM (not active)

CCCCN(C(=O)CSc1nnc[nH]1)c1c(N)n(Cc2ccccc2)c(=O)[nH]c1=O
IC50 [3]: > 47.1 µM (inactive) | EC50 [4]: > 53 µM (inactive)

COc1cc2c(CCNC(C)=O)c[nH]c2cc1O
IC50 [6]: 52.3 µM (active) | AC50 (Cytochrome P450 1A2): 31.6 µM (inconclusive) | AC50 (Cytochrome P450 2D6): 39.8 µM (inconclusive) | AC50 (Cytochrome P450 3A4): 15.8 µM (inconclusive)

Cc1cccc(N2C(=O)NC(=O)/C(=C\c3ccc(N4CCOCC4)cc3)C2=O)c1
IC50 [3]: > 47.1 µM (inactive) | EC50 [4]: > 53 µM (inactive)

O=C1C2CCN(CC2)C1Cc1ccc(OCc2ccccc2)cc1 (stereo not given)
EC50 [7]: 24 µM (inconclusive) | EC50 [8]: 2.41 µM (active)

CC(C)NC(=S)N(CCc1ccncc1)C(C)C
IC50 [3]: > 47.1 µM (inactive) | EC50 [4]: > 53 µM (inactive)

Cc1cc(C(=O)Nc2ccc3c(c2)OCCO3)nn1C(C)(C)C
IC50 [3]: > 47.1 µM (inactive) | EC50 [4]: > 53 µM (inactive)

Cn1cc(CN2CCCC(C(=O)Nc3cccc(-c4cc5ccccc5[nH]4)c3)C2)cn1 (stereo not given)
IC50 [3]: > 47.1 µM (inactive) | EC50 [4]: 42.9 µM (active)

CN1C(=O)/C(=C/c2cn(CC(=O)N3CCCCC3)c3ccccc23)NC1=S
EC50 [7]: > 150 µM (inactive) | EC50 [8]: > 38 µM (not active)

COC(=O)c1c(-c2cccs2)csc1NC(=O)c1cccnc1
EC50 [7]: > 160 µM (inactive) | EC50 [8]: 2.49 µM (active)

COc1cc(OC)c([C@H]2C=C(C)[C@H]3C[C@@H]2C3(C)C)c(OC)c1
EC50 (Streptokinase A): 63.3 µM (active) | EC50 [5]: 4.7 µM (active) | EC50 (Streptococcus): 9.95 µM (active)

N#Cc1c(Cl)nsc1NC(=O)c1ccccc1
AC50 (INS1): 3.29 µM (active) | EC50 [7]: 22.2 µM (active) | EC50 [8]: 0.626 µM (active)

CC1(C2CC2)NC(=O)N(CC(=O)Nc2ccccc2F)C1=O (stereo not given)
IC50 [3]: > 47.1 µM (inactive) | EC50 [4]: > 53 µM (inactive)

COc1cc(/C=C2/C(=N)N3C=C(C)SC3=NC2=O)ccc1O
IC50 [6]: 71.9 µM (active)

FC(F)(F)c1cccc(-c2nc3nc(Cl)c(Cl)nc3[nH]2)c1
EC50 (Streptokinase A): > 150 µM (not active) | AC50 (INS1): 3.23 µM (active) | EC50 [5]: 7.96 µM (active) | EC50 (Streptococcus): 94.8 µM (active) | AC50 (Cytochrome P450 3A4): 5.01 µM (inconclusive)

Cc1cc(C)n2nc(Nc3ccccc3)cc2n1
EC50 [1]: 6.86 µM (active) | EC50 [2]: 15.8 µM (active)

CCOc1cccc(-c2cc(-c3nnc(S)n3CC)c3ccccc3n2)c1
EC50 [7]: > 160 µM (inactive) | EC50 [8]: 4.13 µM (active)

COc1ccc(Cc2nnc(NC(=O)Nc3ccc(C)cc3)s2)cc1OC
IC50 [3]: > 47.1 µM (inactive) | EC50 [4]: > 53 µM (inactive)

C=CCOc1ccccc1CN1CCCN(C)CC1
IC50 [6]: 178 µM (active)

O=C(COc1ccc2c(c1)CCC2)NCc1cccc(Cl)c1
EC50 [7]: > 160 µM (inconclusive) | EC50 [8]: > 38 µM (not active)

COCC1CCN(C(=O)CCc2nnc(C3(c4ccc(Cl)cc4)CCC3)o2)C1 (stereo not given)
EC50 (Streptokinase A): > 150 µM (not active) | EC50 [5]: > 150 µM (not active) | EC50 (Streptococcus): > 150 µM (not active)

CC(=O)N1CCC(=NNc2nc3ccccc3s2)CC1
EC50 [7]: > 160 µM (inactive) | EC50 [8]: > 38 µM (not active)

CC(C)(C)N/N=C1\CC(c2ccccc2)Oc2ccccc21 (stereo not given)
EC50 (Streptokinase A): 7.08 µM (active) | EC50 [5]: 6.48 µM (active) | EC50 (Streptococcus): > 150 µM (not active)

COc1cc(/C=C/C(=O)OCC(=O)NC(=O)NC(C)(C)C)ccc1O
IC50 [6]: 57.5 µM (active)

O=C(NCc1ccc2c(c1)OCO2)Nc1ccc(F)cc1
EC50 (Streptokinase A): > 150 µM (not active) | EC50 [5]: > 150 µM (not active) | EC50 (Streptococcus): > 150 µM (not active)

Fc1ccccc1CNc1ccc(Cl)c(Cl)c1
EC50 (Streptokinase A): > 150 µM (not active) | EC50 [5]: 11.4 µM (active) | EC50 (Streptococcus): 63.8 µM (active)

COCCCn1c(=S)[nH]c2sc3c(c2c1=O)CCCC3
IC50 [6]: 32.9 µM (active)

Cc1ccc(C(=O)Cn2ncsc2=N)cc1
EC50 [1]: 13.5 µM (active) | EC50 [2]: 16.8 µM (active)

O=C(NCc1cn2ccccc2n1)C1CCC(=O)N(Cc2ccccc2F)C1 (stereo not given)
IC50 [3]: > 47.1 µM (inactive) | EC50 [4]: > 53 µM (inactive)

COc1ccc(S(=O)(=O)Nc2c(C)n(C)n(-c3ccccc3)c2=O)cc1C(=O)O
IC50 [3]: > 47.1 µM (inactive) | EC50 [4]: > 53 µM (inactive)

O=C(Nc1ccccc1)c1ccccc1OCc1cccc([N+](=O)[O-])c1
IC50 [3]: > 47.1 µM (inactive) | EC50 [4]: > 53 µM (inactive)

Reference: ChEMBL document CHEMBL1201862, “PubChem BioAssay data set” (2004)
